Experimental data from patent publication US9340590B2 (priority 2011, dated 2016).
Read-outs that look alike come from different tables or passages of the source. Positions of bridges follow the written chain, without caps; N, C: chain ends. Non-standard residues stand in square brackets, D forms with d. Residues, ends and D or L forms follow the SMILES beside them. Phe(4-guanidino) = N=C(N)Nc1ccc(C[C@H](N)C(=O)O)cc1

Key:
Test in all cases: cell-based
[1] = biological target: hNav1.5 (Homo sapiens, UniProt Q14524); settings: IonWorks Quattro, read-out: IWQ Use Nav1.5
[2] = biological target: hNav1.7 (Homo sapiens, UniProt Q15858); type: cell-based; settings: IonWorks Quattro, read-out: IWQ Use Nav1.7
hNav1.7, sequence (Q15858 whole entry, looked up): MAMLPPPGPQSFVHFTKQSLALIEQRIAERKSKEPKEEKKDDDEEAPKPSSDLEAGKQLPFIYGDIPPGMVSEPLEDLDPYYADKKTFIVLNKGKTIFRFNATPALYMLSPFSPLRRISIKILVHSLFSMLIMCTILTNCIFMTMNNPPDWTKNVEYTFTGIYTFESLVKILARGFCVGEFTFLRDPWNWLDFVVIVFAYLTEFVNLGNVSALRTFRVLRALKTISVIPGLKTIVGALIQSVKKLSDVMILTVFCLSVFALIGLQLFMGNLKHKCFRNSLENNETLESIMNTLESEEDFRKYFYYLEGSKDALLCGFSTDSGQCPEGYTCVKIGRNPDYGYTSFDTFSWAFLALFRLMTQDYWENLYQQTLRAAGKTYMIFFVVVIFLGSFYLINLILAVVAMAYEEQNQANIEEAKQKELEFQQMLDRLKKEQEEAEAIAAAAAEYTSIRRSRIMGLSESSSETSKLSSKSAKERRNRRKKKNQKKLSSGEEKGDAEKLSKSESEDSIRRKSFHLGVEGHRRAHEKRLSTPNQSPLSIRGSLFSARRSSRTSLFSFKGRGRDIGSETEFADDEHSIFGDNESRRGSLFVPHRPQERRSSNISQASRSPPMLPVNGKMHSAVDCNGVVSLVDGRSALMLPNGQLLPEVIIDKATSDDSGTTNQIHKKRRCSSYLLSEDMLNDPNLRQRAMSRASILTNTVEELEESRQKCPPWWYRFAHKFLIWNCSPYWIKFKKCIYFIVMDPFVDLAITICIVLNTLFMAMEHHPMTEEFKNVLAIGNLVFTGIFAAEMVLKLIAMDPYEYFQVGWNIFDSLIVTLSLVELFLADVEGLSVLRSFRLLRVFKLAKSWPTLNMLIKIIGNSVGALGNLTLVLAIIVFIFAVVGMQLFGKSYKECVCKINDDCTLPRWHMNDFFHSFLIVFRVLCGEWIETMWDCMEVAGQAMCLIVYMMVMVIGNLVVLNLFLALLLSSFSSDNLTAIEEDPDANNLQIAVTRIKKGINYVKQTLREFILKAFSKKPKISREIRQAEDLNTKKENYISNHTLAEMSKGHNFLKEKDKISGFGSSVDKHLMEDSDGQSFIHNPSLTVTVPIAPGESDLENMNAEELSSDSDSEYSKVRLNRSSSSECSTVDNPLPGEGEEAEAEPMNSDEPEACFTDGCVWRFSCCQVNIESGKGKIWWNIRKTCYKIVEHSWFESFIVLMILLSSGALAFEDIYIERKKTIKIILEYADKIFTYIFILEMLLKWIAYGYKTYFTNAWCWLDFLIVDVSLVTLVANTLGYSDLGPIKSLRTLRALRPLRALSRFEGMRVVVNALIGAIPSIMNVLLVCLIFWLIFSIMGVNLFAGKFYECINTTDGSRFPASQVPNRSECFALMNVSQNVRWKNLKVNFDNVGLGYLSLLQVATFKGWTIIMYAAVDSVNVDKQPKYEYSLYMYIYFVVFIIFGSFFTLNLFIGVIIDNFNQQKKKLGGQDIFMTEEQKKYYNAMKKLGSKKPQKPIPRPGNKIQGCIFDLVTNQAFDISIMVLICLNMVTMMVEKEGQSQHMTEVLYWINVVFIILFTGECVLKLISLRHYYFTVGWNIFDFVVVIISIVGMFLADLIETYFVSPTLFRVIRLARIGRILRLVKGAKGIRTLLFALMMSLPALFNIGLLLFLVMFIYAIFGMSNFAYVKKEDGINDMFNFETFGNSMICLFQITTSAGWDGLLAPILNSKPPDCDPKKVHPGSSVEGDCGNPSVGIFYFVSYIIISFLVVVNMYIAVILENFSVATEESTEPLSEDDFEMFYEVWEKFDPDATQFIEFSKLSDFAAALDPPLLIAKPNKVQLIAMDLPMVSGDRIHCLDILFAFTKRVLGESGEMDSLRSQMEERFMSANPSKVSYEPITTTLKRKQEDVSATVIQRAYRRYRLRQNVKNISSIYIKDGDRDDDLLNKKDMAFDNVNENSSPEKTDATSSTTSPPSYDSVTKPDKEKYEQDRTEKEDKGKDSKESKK

[3] = biological target: hNav1.3 (Homo sapiens, UniProt Q9NY46); settings: IonWorks Quattro, read-out: IWQ Use Nav1.3
hNav1.3, sequence (Q9NY46 whole entry, looked up): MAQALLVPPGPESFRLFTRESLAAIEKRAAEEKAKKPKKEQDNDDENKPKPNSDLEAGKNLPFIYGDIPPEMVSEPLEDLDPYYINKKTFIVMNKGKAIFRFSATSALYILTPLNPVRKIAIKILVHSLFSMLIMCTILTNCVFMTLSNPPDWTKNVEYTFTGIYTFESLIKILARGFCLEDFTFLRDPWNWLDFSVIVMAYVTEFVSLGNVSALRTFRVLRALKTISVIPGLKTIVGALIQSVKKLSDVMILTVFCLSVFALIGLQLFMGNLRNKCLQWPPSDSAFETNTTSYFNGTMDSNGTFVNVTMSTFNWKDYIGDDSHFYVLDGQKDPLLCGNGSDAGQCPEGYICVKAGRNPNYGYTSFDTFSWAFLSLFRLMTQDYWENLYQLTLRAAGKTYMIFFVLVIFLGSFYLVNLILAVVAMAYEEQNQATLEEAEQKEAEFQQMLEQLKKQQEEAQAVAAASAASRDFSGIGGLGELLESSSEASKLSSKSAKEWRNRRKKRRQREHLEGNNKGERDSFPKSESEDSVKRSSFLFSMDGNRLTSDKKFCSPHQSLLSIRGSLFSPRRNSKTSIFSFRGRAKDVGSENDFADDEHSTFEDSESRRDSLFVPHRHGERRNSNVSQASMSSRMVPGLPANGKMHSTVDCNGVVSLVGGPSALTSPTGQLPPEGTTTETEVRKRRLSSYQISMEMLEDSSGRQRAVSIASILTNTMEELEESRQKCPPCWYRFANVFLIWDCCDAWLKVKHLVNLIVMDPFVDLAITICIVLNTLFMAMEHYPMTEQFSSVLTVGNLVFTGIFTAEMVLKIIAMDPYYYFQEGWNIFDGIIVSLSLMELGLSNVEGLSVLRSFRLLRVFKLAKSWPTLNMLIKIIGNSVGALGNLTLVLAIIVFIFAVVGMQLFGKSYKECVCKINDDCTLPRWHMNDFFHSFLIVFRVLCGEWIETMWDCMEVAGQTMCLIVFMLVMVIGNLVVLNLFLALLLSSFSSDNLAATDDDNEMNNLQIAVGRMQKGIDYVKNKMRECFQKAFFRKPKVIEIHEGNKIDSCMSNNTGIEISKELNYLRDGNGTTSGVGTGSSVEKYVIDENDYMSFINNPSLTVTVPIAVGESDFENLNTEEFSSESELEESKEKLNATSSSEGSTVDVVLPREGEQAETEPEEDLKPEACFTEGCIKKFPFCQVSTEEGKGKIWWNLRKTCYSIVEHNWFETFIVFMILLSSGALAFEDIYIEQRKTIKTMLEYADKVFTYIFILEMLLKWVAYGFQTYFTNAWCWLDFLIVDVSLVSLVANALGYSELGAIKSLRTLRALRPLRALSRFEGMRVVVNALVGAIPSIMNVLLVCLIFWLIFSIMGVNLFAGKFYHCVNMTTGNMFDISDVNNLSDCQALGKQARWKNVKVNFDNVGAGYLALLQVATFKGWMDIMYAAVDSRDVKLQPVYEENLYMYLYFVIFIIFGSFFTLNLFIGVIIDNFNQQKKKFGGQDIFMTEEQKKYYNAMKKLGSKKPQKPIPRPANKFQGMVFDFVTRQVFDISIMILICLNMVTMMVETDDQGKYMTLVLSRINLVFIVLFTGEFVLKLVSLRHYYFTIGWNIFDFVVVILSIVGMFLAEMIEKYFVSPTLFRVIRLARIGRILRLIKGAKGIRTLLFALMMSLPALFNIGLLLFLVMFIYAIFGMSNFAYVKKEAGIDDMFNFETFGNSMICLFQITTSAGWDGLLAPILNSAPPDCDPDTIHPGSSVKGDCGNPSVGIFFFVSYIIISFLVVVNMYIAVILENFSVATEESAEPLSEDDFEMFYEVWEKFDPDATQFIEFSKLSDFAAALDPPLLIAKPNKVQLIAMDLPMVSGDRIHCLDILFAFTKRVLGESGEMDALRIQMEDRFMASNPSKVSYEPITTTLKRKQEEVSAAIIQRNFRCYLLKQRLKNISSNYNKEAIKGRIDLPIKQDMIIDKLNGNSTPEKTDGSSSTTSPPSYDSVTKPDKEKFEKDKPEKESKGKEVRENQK

Question: Which results are given for `CC[C@H](C)[C@@H]1NC(=O)[C@@H]2CSSC[C@@H]3NC(=O)[C@H](C(C)C)NC(=O)[C@H](CC(C)C)NC(=O)[C@H](CC(N)=O)NC(=O)[C@@H]4CCCN4C(=O)[C@H](CCCNC(=N)N)NC(=O)[C@H](CSSC[C@H](NC(=O)[C@@H](N)CC(=O)O)C(=O)N[C@@H](CC(C)C)C(=O)NCC(=O)N[C@@H](Cc4ccccc4)C(=O)N[C@@H](CCSC)C(=O)N[C@@H](CCCNC(=N)N)C(=O)N[C@@H](CCCCN)C(=O)N2)NC(=O)[C@H](CSSC[C@@H](C(=O)N[C@@H](CCCCN)C(=O)N[C@@H](Cc2c[nH]c4ccccc24)C(=O)N[C@H](C(=O)N[C@@H](Cc2ccccc2)C(N)=O)C(C)C)NC(=O)[C@H](Cc2c[nH]c4ccccc24)NC(=O)[C@H](CCCCN)NC(=O)[C@H](Cc2c[nH]cn2)NC(=O)[C@H]([C@@H](C)O)NC(=O)[C@H](CCCNC(=N)N)NC(=O)[C@H](CO)NC3=O)NC(=O)[C@H](CCCCN)NC(=O)[C@H](CC(=O)O)NC(=O)[C@H](CC(N)=O)NC(=O)[C@H](CC(=O)O)NC(=O)[C@@H]2CCCN2C1=O` [compound 85] (H-DCLGFMRKCIPDNDKCCRPNLVCSRTHKWCKWVF-NH2; disulfide 2-17, 9-23, 16-30)?
Answer: IC50 ([1]; Table 25, use, […]): 6740 nM; IC50 ([2]; Table 25, use, […]): 90 nM; IC50 ([3]; Table 25, use, […]): 160 nM

Question: Which IC50 ([1]; Table 26, use, […]) does the source give for `CC[C@H](C)[C@@H]1NC(=O)[C@@H]2CSSC[C@@H]3NC(=O)[C@H](C(C)C)NC(=O)[C@H](CC(C)C)NC(=O)[C@H](CC(N)=O)NC(=O)[C@@H]4CCCN4C(=O)[C@H](CCCNC(=N)N)NC(=O)[C@H](CSSC[C@H](NC(=O)[C@@H](N)CC(=O)O)C(=O)N[C@@H](CC(C)C)C(=O)NCC(=O)N[C@@H](Cc4ccccc4)C(=O)N[C@@H](CCSC)C(=O)N[C@@H](CCCNC(=N)N)C(=O)N[C@@H](CCCCN)C(=O)N2)NC(=O)[C@H](CSSC[C@@H](C(=O)N[C@@H](CCCCN)C(=O)N[C@@H](Cc2ccc(O)cc2)C(=O)N[C@@H](C)C(=O)N[C@@H](Cc2ccccc2)C(N)=O)NC(=O)[C@H](Cc2c[nH]c4ccccc24)NC(=O)[C@H](CCCCN)NC(=O)[C@H](Cc2cnc[nH]2)NC(=O)[C@H]([C@@H](C)O)NC(=O)[C@H](CCCNC(=N)N)NC(=O)[C@H](CO)NC3=O)NC(=O)[C@H](CCCCN)NC(=O)[C@H](CC(=O)O)NC(=O)[C@H](CC(N)=O)NC(=O)[C@H](CC(=O)O)NC(=O)[C@@H]2CCCN2C1=O` [compound 15] (H-DCLGFMRKCIPDNDKCCRPNLVCSRTHKWCKYAF-NH2; disulfide 2-17, 9-23, 16-30) here?
Answer: 18600 nM

Question: What about the IC50 ([2]; Table 26, use, […]) of the same molecule?
Answer: 330 nM

Question: What about the IC50 ([3]; Table 26, use, […]) of the same molecule?
Answer: 350 nM

Question: Which IC50 ([1]; use-dependent block, hNav1.5) does the source give for `CC[C@H](C)[C@@H]1NC(=O)[C@@H]2CSSC[C@@H]3NC(=O)[C@H](C(C)C)NC(=O)[C@H](CC(C)C)NC(=O)[C@H](CC(N)=O)NC(=O)[C@@H]4CCCN4C(=O)[C@H](CCCNC(=N)N)NC(=O)[C@H](CSSC[C@H](NC(=O)[C@@H](N)CC(=O)O)C(=O)N[C@@H](CC(C)C)C(=O)NCC(=O)N[C@@H](C)C(=O)N[C@@H](CCSC)C(=O)N[C@@H](CCCNC(=N)N)C(=O)N[C@@H](CCCCN)C(=O)N2)NC(=O)[C@H](CSSC[C@@H](C(=O)N[C@@H](CCCCN)C(=O)N[C@@H](Cc2ccc(O)cc2)C(=O)N[C@H](C(=O)N[C@@H](Cc2ccccc2)C(N)=O)C(C)C)NC(=O)[C@H](Cc2c[nH]c4ccccc24)NC(=O)[C@H](Cc2ccc(NC(=N)N)cc2)NC(=O)[C@H](Cc2c[nH]cn2)NC(=O)[C@H]([C@@H](C)O)NC(=O)[C@H](CCCNC(=N)N)NC(=O)[C@H](CO)NC3=O)NC(=O)[C@H](CCCCN)NC(=O)[C@H](CC(=O)O)NC(=O)[C@H](CC(N)=O)NC(=O)[C@H](CC(=O)O)NC(=O)[C@@H]2CCCN2C1=O` [compound 761] (H-DCLGAMRKCIPDNDKCCRPNLVCSRTH[Phe(4-guanidino)]WCKYVF-NH2; disulfide 2-17, 9-23, 16-30) here?
Answer: 26900 nM

Question: And the IC50 ([2]; use-dependent block, hNav1.7)?
Answer: 160 nM

Question: What about the IC50 ([3]; use-dependent block, hNav1.3) of the same molecule?
Answer: 630 nM
